Experiments:
Type in all cases: in vivo
[1] = system: roses of the type Furiosa; assay: Effect of oxytocin on the florescence of cut roses of the type Furiosa (appearance scores after pretreatment in cold-storage room)
Method: The stalks of newly delivered roses of the type Furiosa were cut (1 cm from the lowest part of the stem) and thereafter the roses were placed in buckets containing water with different doses of oxytocin (0, 0.1, 1 and 10 μM) and kept in a cold-storage room for […]. Nine roses were included in each treatment group.
Thereafter, the roses were moved to a home like setting with normal room temperature. The stalks of the roses were again cut and the roses were placed in individual vases filled with tap water.
The assessment criteria were: degree of bud opening (i.e. degree of flower turn-out), degree of drooping (i.e. how bent the stalk was, freshness of the petals, freshness of the sepals and freshness of the stem leaves. Each assessment criterion was given a score from 1-5 according to the description. An average score based on all the assessment criteria was also calculated.

[2] = system: roses of the type Upper class; assay: Effect of oxytocin on the survival of cut roses of the type Upper class (appearance scores after pretreatment in cold-storage room); details: oxytocin 1-10 μmolar in water, cold-storage room 18 days, then tap water at room temperature; assessed at 4, 9, 15 and 20 days; FIG. 2
Description: The stalks of newly delivered roses of the type Upper class were cut (1 cm from the lowest part of the stem) and thereafter the roses were placed in buckets containing water with different doses of oxytocin (For doses see Table 1 and kept in a cold-storage room for 18 days. Four roses were included in each treatment group.
Thereafter, the roses were moved to a home-like setting with normal room temperature. The stalk of the roses was cut again and the roses were placed in individual vases filled with tap water.
The assessment criteria were: degree of bud opening (i.e. degree of flower turn-out), degree of drooping (i.e. how bent the stalk was, freshness of the petals, freshness of the sepals and freshness of stem leaves. Each assessment criterion was given a score from 1-5 according to the description. An average score based on all the assessment criteria was also calculated.

[3] = system: roses of the type Belle Rose; assay: Effect of oxytocin on the survival of cut roses of the type Belle Rose (appearance scores after pretreatment in cold-storage room); details: oxytocin 1, 5 and 10 μM in the presence of Chrysal, in particular 10 μM; cold-storage room 3 days, then tap water at room temperature; FIGS. 5 and 6
Method: The stalks of newly delivered roses of the type Belle Rose were cut (1 cm from the lowest part of the stem) and thereafter the roses were placed in buckets containing tap water or tap water with different doses of oxytocin (0, 1, 5 and 10 μM in the presence of Chrysal) and kept in a cold-storage room for 3 days. Eight to nine roses were included in each bucket.
Thereafter, the roses were moved to a home like setting with normal room temperature. The stalks of the roses were again cut and the rose bouquets were placed in vases filled with tap water.
The appearance of the roses was assessed at 0, 2, 4, 7 10 and 13 days after being placed in the home like setting according to the criteria shown in Table 2 (see Example 1). The assessment criteria were: degree of bud opening (i.e. degree of flower turn-out), degree of drooping (i.e. how bent the stalk was, freshness of the petals, freshness of the sepals and freshness of the stem leaves. Each assessment criterion was given a score from 1-5 according to the description. An average score based on all the assessment criteria was also calculated.

oxytocin
duration of time during which the roses kept fresh and attractive (days with bud opening score above 1.5) ([1]; in particular with 10 μM oxytocin, after being put in tap water in home-like setting, FIG. 4): increased in response to oxytocin
degree of bud opening ([1]; oxytocin 0.1, 1 and 10 μM, in particular 10 μM, pretreatment in cold-storage room, then tap water at room temperature, FIG. 3): increased the degree of bud opening
effect on degree of bud opening by length of oxytocin treatment ([1]; treatment with oxytocin for 3 days versus 6 hours in cold-storage room, FIG. 3): more pronounced after treatment with oxytocin for 3 days than for 6 hours
individual assessments (bud opening, drooping, freshness of petals, sepals, stem leaves) [2]: in a positive direction
duration of time during which the roses kept fresh and attractive [3]: increased in response to oxytocin
level of florescence [3]: increased the level of florescence

From US12402621B2, “Method for increasing longevity and/or bud opening of cut flowers” (LETAVIS AB, priority 2019, dated 2025)
